Columns and labels:
[1] = target: T1, CFTR (Homo sapiens, UniProt P13569); conditions: read-out: concentration giving 50% inhibition of CFTR Cl− channel function; intact cells, depending on cell type and membrane potential; ref Ma et al., 2002a; Taddei et al., 2004; cited from earlier work
[2] = target: T1, CFTR; assay: Apical Cl− current in CFTR-expressing FRT cells; type: cell-based; conditions: for Ki: Ki is compound concentration giving 50% inhibition of apical membrane Cl− current in CFTR-expressing FRT cells; for % inhibition at 50 μM: apical membrane Cl− current, FRT cells
[3] = test system: CFTR; type: in vivo; conditions: 100 μM in all solutions; mice
[4] = target: MDR-1 (Homo sapiens, UniProt P08183); assay: Rhodamine 123 uptake in cells overexpressing MDR-1; type: cell-based; conditions: 100 μM
Sequence of MDR-1 (P08183 whole entry): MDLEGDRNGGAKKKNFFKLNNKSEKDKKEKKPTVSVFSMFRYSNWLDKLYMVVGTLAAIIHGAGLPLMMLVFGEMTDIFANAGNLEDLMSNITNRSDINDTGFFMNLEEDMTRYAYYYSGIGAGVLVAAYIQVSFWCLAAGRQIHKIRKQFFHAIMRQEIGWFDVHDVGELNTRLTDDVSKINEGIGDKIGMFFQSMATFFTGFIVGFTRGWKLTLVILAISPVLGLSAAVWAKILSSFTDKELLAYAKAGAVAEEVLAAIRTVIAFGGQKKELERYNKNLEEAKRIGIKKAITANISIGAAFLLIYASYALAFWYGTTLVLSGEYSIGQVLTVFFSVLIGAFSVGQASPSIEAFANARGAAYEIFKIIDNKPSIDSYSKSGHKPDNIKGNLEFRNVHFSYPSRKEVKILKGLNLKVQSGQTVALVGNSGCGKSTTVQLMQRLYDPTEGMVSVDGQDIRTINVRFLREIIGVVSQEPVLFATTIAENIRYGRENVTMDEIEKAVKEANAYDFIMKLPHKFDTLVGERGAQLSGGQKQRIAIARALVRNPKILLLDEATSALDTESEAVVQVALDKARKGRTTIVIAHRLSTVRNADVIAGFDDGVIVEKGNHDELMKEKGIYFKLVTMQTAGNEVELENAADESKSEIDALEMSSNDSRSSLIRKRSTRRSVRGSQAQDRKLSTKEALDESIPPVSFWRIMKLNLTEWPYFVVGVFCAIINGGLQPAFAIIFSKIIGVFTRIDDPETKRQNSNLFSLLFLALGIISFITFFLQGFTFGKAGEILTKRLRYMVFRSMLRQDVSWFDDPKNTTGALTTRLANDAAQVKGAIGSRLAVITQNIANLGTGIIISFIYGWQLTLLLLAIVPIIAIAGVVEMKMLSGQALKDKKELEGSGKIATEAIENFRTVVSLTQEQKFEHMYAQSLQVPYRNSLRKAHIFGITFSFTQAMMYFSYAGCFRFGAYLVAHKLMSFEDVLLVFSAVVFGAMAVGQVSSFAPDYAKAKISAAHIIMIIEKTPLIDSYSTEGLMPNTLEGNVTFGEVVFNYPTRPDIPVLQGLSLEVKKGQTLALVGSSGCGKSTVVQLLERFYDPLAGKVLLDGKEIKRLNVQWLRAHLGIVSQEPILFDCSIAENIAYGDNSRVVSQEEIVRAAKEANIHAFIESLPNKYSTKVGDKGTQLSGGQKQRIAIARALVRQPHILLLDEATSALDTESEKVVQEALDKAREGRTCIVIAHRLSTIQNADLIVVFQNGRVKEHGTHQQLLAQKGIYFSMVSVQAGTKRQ

T1 sequence (P13569 whole entry): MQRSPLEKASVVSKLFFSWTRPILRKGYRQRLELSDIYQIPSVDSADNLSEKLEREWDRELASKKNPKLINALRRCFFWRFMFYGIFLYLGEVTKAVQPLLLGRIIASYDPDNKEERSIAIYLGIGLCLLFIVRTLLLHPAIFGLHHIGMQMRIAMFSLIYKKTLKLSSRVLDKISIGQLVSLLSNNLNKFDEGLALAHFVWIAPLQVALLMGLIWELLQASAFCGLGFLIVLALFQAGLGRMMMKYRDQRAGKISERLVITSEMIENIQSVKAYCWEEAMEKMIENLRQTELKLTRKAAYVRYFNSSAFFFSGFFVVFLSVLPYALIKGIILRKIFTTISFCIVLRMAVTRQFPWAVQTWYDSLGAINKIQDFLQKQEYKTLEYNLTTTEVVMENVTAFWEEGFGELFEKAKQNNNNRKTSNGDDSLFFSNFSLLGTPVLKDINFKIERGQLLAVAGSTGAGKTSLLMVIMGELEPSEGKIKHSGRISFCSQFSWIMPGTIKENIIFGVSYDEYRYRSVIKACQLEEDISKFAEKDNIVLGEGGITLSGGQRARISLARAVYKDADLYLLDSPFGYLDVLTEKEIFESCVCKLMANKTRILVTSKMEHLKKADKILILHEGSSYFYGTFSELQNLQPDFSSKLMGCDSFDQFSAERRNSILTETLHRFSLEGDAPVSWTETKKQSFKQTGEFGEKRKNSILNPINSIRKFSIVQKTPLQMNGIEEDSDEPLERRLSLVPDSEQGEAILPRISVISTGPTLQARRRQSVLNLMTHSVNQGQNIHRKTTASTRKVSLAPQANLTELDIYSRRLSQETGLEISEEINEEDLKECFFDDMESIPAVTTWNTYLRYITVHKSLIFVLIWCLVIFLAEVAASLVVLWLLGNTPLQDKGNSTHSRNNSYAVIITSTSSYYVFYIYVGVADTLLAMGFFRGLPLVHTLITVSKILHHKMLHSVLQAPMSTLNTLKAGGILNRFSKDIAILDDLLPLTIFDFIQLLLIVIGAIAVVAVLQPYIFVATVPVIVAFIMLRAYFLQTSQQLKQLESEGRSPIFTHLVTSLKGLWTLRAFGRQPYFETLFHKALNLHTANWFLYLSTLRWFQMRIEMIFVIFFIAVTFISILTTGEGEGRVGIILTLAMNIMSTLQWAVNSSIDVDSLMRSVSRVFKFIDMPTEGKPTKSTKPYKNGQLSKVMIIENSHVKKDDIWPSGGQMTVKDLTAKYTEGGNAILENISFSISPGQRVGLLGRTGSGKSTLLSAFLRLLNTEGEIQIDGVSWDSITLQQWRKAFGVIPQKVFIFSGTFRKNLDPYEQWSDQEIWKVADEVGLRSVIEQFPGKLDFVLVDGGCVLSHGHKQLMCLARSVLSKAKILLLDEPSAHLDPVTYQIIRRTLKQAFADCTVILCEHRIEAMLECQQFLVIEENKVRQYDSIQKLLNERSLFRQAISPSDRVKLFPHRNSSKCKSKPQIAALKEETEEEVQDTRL

SMILES	Ki [2] [µM]	further results
O=C(O)c1ccc(/C=C2\SC(=S)N(c3cccc(C(F)(F)F)c3)C2=O)cc1 [CFTRinh-172]		IC50 [1]: 0.3 to 3 µM
O=C(CNc1ccc2cc3ccccc3cc2c1)NN=Cc1cc(Br)c(O)c(Br)c1O [GlyH-124]	25 to 50	
O=C(NNC(=O)c1cc(Br)c(O)c(Br)c1)C(=O)Nc1ccc2ccccc2c1 [OxaH-204]	> 50	
COc1c(Br)cc(C=NNC(=O)CNc2ccc3ccccc3c2)c(O)c1Br [GlyH-103]	20	% inhibition at 50 μM [2]: 56%
O=C(NNCc1cc(Br)c(O)c(Br)c1)C(=O)Nc1ccc2ccccc2c1 [OxaH-304]	12	% inhibition at 50 μM [2]: 78%
O=C(CNc1ccc(Cl)cc1)NN=Cc1cc(Br)c(O)c(Br)c1 [GlyH-114]	5	
Cc1ccc(NCC(=O)NN=Cc2cc(Br)c(O)c(Br)c2O)cc1 [GlyH-116]	10	
Cc1ccccc1NCC(=O)NN=Cc1cc(Br)c(O)c(Br)c1O [GlyH-117]	25 to 50	
O=C(COc1ccc2ccccc2c1)NN=Cc1cc(Br)c(O)c(Br)c1 [AceH-402]	17	% inhibition at 50 μM [2]: 86%
CC(=NNC(=O)C(=O)Nc1ccc2ccccc2c1)c1cc(Br)c(O)c(Br)c1O [OxaH-112]	3	
O=C(CNc1ccc2cc3ccccc3cc2c1)NN=Cc1cc(Br)c(O)c(Br)c1 [GlyH-125]	25 to 50	
O=C(NN=Cc1cc(Br)c(O)c(Br)c1O)C(=O)Nc1ccc2ccccc2c1 [OxaH-203]	> 50	
O=C(CNc1ccc2ccccc2c1)NNC(=O)c1cc(Br)c(O)c(Br)c1 [GlyH-202, 3,5-Dibromo-4-hydroxy-[2-(2-naphthalenamine)aceto] Benzoic Acid Hydrazide]	22	% inhibition at 50 μM [2]: 57%
O=C(COc1ccc2ccccc2c1)NN=Cc1cc(Br)c(O)c(Br)c1O [AceH-401]	21	% inhibition at 50 μM [2]: 84%
O=C(CNc1ccc(Cl)cc1)NN=Cc1cc(Br)c(O)c(Br)c1O [GlyH-115]	6.7	
O=S(=O)(O)c1cc(N=C=S)ccc1C=Cc1ccc(N=C=S)cc1S(=O)(=O)O [DIDS]		inhibition of the (CFTR-independent) hyperpolarization produced by low Cl− [3]: partial inhibition
O=C(CNc1ccc2ccccc2c1)NN=Cc1ccc(Br)cc1 [GlyH-120]	25 to 50	
COc1ccc(CCN(C)CCCC(C#N)(c2ccc(OC)c(OC)c2)C(C)C)cc1OC (stereo not shown) [verapamil]		increase of rhodamine 123 incorporation [4]: greater than fivefold
CC(=NNC(=O)CNc1ccc2ccccc2c1)c1cc(Br)c(O)c(Br)c1 [GlyH-109]	4.7	
O=C(CNc1ccc(Cl)cc1)NN=Cc1ccc(O)cc1O [GlyH-123]	25 to 50	
O=C(CNc1cccc2ccccc12)NN=Cc1ccc(O)c(Br)c1 [GlyH-118]	25 to 50	
O=C(NNCc1cc(Br)c(O)c(Br)c1O)C(=O)Nc1ccc2ccccc2c1 [OxaH-303]	10	% inhibition at 50 μM [2]: 70%

— publication PMC2229623 (The Journal of General Physiology, 2004)
